Assays:
[1] = Highest frequency of moderate liver toxicity observed during clinical trials, expressed as a percentage. [column '% BIOL' in source]; settings: human
[2] = Highest frequency of acute liver toxicity observed during clinical trials, expressed as a percentage. [column '% AIGUE' in source]; settings: human
[3] = Comments (NB not yet translated). [column 'COMMENTAIRES' in source]; settings: human
[4] = Times to onset, minimal and maximal, observed in the indexed observations. [column 'DELAI' in source]; settings: human
[5] = human, serum
[6] = human, serum; remark: listed apart in the source
[7] = human
[8] = human; remark: listed apart in the source
[9] = human; remark: listed apart in the source
[10] = human, serum, 4383 h
[11] = human; remark: listed apart in the source
[12] = human; remark: listed apart in the source
[13] = human; remark: listed apart in the source
[14] = human; remark: listed apart in the source
[15] = human; remark: listed apart in the source
[16] = human; remark: listed apart in the source
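Throughout, for Hepatotoxicity (association with vascular disease): count of indexed literature references reporting vascular liver injury in humans, e.g. peliosis hepatitis, hepatic veno-occlusive disease or Budd-Chiari syndrome.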
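Throughout, for Hepatotoxicity (benign tumour): value is a count of indexed literature references citing a benign tumour confirmed by histopathology.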
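Throughout, for Hepatotoxicity (choleostasis): human cholestatic liver injury, shown by histopathology or by peak ALT or AST elevation over alkaline phosphatase ratio below 2, value counts indexed literature reports.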
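Throughout, for Hepatotoxicity (chronic liver disease): chronic liver injury confirmed by histopathology or persistently raised serum aminotransferase activity beyond 6 months, value given as the count of indexed literature references.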
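Throughout, for Hepatotoxicity (cirrhosis): value is a count of indexed literature references reporting cirrhosis confirmed by histopathology.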
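Throughout, for Hepatotoxicity (cytolytic): human cytolytic liver injury, shown by histopathology or by a ratio above 5 of peak ALT or AST elevation to alkaline phosphatase elevation, value counts indexed references.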
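Throughout, for Hepatotoxicity (granulomatous hepatitis): value is a count of indexed literature references reporting granulomatous liver disease confirmed by histopathology.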
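Throughout, for Hepatotoxicity (malignant tumour): malignant tumour confirmed by histopathology, value gives the count of indexed literature references reporting it.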
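Throughout, for Hepatotoxicity (severe hepatitis): human clinical data: severe hepatitis, meaning potentially life-threatening liver failure or clinically observed cases, the value counts how many indexed literature references report it.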
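Throughout, for Hepatotoxicity (steatosis): steatosis confirmed by histopathology, value is the count of indexed references.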

Structure (SMILES) | Hepatotoxicity (moderate) ([1]; Liver) | Hepatotoxicity (acute) ([2]; Liver) | Hepatotoxicity (comment) [3] | Hepatotoxicity (time to onset) [4] | Hepatotoxicity (moderate) [5] | Hepatotoxicity (acute) [6] | Hepatotoxicity (severe hepatitis) ([9]; Liver) | Hepatotoxicity (chronic liver disease) [10] | Hepatotoxicity (cirrhosis) [11] | Hepatotoxicity (association with vascular disease) [13] | Hepatotoxicity (steatosis) [14] | Hepatotoxicity (malignant tumour) [15] | Hepatotoxicity (benign tumour) [16] | Hepatotoxicity (moderate) [1] | Hepatotoxicity (acute) [2] | Hepatotoxicity (cytolytic) [7] | Hepatotoxicity (choleostasis) [8] | Hepatotoxicity (severe hepatitis) [9] | Hepatotoxicity (granulomatous hepatitis) [12] | also measured
CC(=O)[C@@]1(O)CC[C@H]2[C@@H]3C[C@H](C)C4=CC(=O)CC[C@]4(C)[C@H]3CC[C@@]21C | 4.9% | 3.3% | LITHIASE | 1 month - 1.7 years | 5 | 3 | 1 | 0 | 0 | 0 | 0 | 0 | 0 |  |  |  |  |  |  | Hepatotoxicity (cytolytic) ([7]; Liver): 1; Hepatotoxicity (choleostasis) ([8]; Liver): 1; Hepatotoxicity (granulomatous hepatitis) ([12]; Liver): 0
CCO.CN1CCC[C@H]1c1cccnc1 | 4% | 0% | CHOLANGITE | 8 months - 10 years | 2 | 3 | 0 | 1 | 0 | 0 | 0 | 0 | 0 |  |  |  |  |  |  | Hepatotoxicity (cytolytic) ([7]; Liver): 1; Hepatotoxicity (choleostasis) ([8]; Liver): 2; Hepatotoxicity (granulomatous hepatitis) ([12]; Liver): 0
C[C@]12C=CC(=O)C=C1CC[C@@H]1[C@@H]2CC[C@@]2(C)[C@H]1CC[C@]2(C)O (stereo in doubt; form 1) [METHANDROSTENOLONE] |  |  | ANGIOSARCOME | 1 year - 2 years | 0 | 3 |  | 0 | 0 | 0 | 0 | 2 | 1 | 0% | 0% | 0 | 0 | 0 | 0 | 
CC(=O)c1ccc2c(c1)N(CCCN(C)C)c1ccccc1S2 [ACEPROMAZINE] |  |  | CHOLESTASE_PROLONGEE | 3 months | 0 | 1 |  | 0 | 0 | 0 | 0 | 0 | 0 | 0% | 0% | 0 | 1 | 0 | 0 | 
CC(=O)c1ccc2c(c1)N(CC(C)N(C)C)c1ccccc1S2 (stereo not drawn) [ACEPROMETAZINE] |  |  | CHOLESTASE_PROLONGEE | 3 months | 0 | 1 |  | 0 | 0 | 0 | 0 | 0 | 0 | 0% | 0% | 0 | 1 | 0 | 0 | 
NCCCC(O)(P(=O)(O)O)P(=O)(O)O [ALENDRONIC ACID] | 1.6% | 0% | AC_ANTI-ML | 2 months - 6 months | 2 | 3 | 1 | 0 | 0 | 0 | 0 | 0 | 0 |  |  |  |  |  |  | Hepatotoxicity (cytolytic) ([7]; Liver): 3; Hepatotoxicity (choleostasis) ([8]; Liver): 0; Hepatotoxicity (granulomatous hepatitis) ([12]; Liver): 0
O=c1cc(Cc2ccccc2)[nH]c(=S)[nH]1 [BENZYLTHIOURACIL] |  |  | RC/CARBIMAZOLE | 1 month - 2 months | 1 | 1 |  | 0 | 0 | 0 | 0 | 0 | 0 | 0% | 0% | 0 | 1 | 0 | 0 | 
CC(C)(Oc1ccc(CCNC(=O)c2ccc(Cl)cc2)cc1)C(=O)O [BEZAFIBRATE] |  |  | I/PERHEXILINE | 3 weeks - 3 months | 5 | 2 |  | 0 | 0 | 0 | 0 | 0 | 0 | 10% | 0% | 1 | 0 | 1 | 0 | 
Nc1c(CC(=O)O)cccc1C(=O)c1ccc(Br)cc1 [BROMFENAC] |  |  | AC_ANTI-N | 2 weeks - 8 months | 0 | 7 |  | 0 | 0 | 0 | 0 | 0 | 0 | 0% | 0% | 7 | 0 | 7 | 0 | 
CS(=O)(=O)OCCCCOS(C)(=O)=O [BUSULFAN] |  |  | HNR(I/THIOGUANINE) MVO | 2 days - 6 years | 11 | 6 |  | 0 | 1 | 42 | 0 | 0 | 0 | 100% | 6.7% | 3 | 3 | 4 | 0 | 
CCN1CCN(C(=O)N[C@@H](C(=O)N[C@@H]2C(=O)N3C(C(=O)O)=C(CSc4nnnn4C)CS[C@H]23)c2ccc(O)cc2)C(=O)C1=O [CEFOPERAZONE] | 20% | 0% | CHOLANGITE | 23 days | 15 | 0 | 1 | 0 | 0 | 0 | 0 | 0 | 0 |  |  | 0 | 0 |  | 0 | 
NS(=O)(=O)c1cc2c(cc1Cl)N=CNS2(=O)=O [CHLOROTHIAZIDE] |  |  | #CBP | 2 weeks - 2 years | 0 | 5 |  | 0 | 1 | 0 | 0 | 0 | 0 | 0% | 0% | 0 | 5 | 1 | 0 | 
c1ccc(C2(c3ccccc3)CC2C2=NCCN2)cc1 (stereo not drawn) [CIFENLINE] |  |  | CHOLANGITE | 47 days - 5.5 months | 2 | 2 |  | 0 | 0 | 0 | 0 | 0 | 0 | 4.1% | 0% | 2 | 0 | 0 | 0 | 

From ChEMBL document CHEMBL3137667, “[Drug-induced liver injury; fourteenth updated edition of the bibliographic database of liver injuries and related drugs]” (Gastroenterol Clin Biol, 2004)
